In article PMC9211397, “High-Throughput Screening Platform To Identify Inhibitors of Protein Synthesis with Potential for the Treatment of Malaria” (Antimicrobial Agents and Chemotherapy, 2022):
Several values for one entry are separate records, joined by “and”; a condition that tells them apart may be missing. Equal entries are not always repeated. Where two headings read alike, the source gives them in different places.

Experiments:
[1] = biological target: P. falciparum translation (P. falciparum lysate); assay: P. falciparum in vitro translation (PfIVT) assay, lysate-based, luciferase reporter; assay type: biochemical, Plasmodium falciparum; conditions: for selectivity index/window, PfIVT compared to HsIVT: HsIVT IC50 over PfIVT IC50; for PfIVT inhibition at 30 μM (%): single-point screen
Excerpt: (§1) Our P. falciparum in vitro translation (PfIVT) assay is built upon previously established assays ([14], [17]) and is summarized in Fig. 1A. In this assay, successful reconstitution of Plasmodium protein translation is reported via synthesis of a luciferase reporter. For PfIVT, two independent untranslated regions (UTRs), previously shown to promote strong levels of translation ([17]), were introduced upstream and downstream of the luciferase. The 5′ UTR from P. falciparum histidine-rich protein 3 (PfHrp3) ([18]) was introduced upstream of the reporter gene, and the 3′ UTR from P. falciparum histidine-rich protein 2 (PfHrp2) gene ([19]) was introduced downstream. For the reporter construct to support our complementary human IVT assay (HsIVT), the 5′ UTR was replaced with an internal ribosome entry site (IRES) from encephalomyocarditis virus (EMCV) ([20]) and the 3′ UTR was replaced with a poly(A) tail ([21]). […] Finally, a 30-bp poly(A) tail, present within the vector and downstream of the luciferase gene, was inserted to enhance mRNA stability ([21]).
(§2) Translationally active P. falciparum or human embryonic kidney (HEK) 293F lysates were supplemented with accessory, helper, amino acid, and energy regeneration solutions (see Materials and Methods for details). In vitro translation reactions were initiated by the addition of purified mRNA to each reaction well. Using this basic assay format, a number of parameters were assessed and optimized, namely, assay temperature, time, mRNA concentration, and reaction volume (summarized in Fig. S2 in the supplemental material). In addition, we compared the luminescence signal of the CBG firefly luciferase with CBG99, derived from the click beetle […] ([18]).
3D7 parasites were synchronized following two rounds of treatment with D-sorbitol (5%), as previously described ([40]). The hematocrit was reduced from 5% (for standard culture) to 1.5 to 2% and cultures were transferred into HYPERflasks (Corning). Fresh medium was added once or twice daily. […] Harvested red blood cells (infected) were lysed by incubation in 0.1% (wt/vol) saponin on ice for 10 min with gentle agitation. Free parasites were harvested by centrifugation (2,800 × g, 10 min, 4°C) and washed 3 times in wash buffer (WB; 100 mM potassium acetate, 2.5 mM magnesium acetate, 45 mM HEPES [pH 7.4], 250 mM sucrose, 2 mM dithiothreitol, and 15 μM leupeptin) to remove lysed red blood cell debris. The resulting pellet was resuspended in 1 volume of WB supplemented with cOmplete EDTA-free protease inhibitor cocktail (Roche; 1 tablet/20 mL) and human RNase A inhibitor (Sigma; 5 U/mL). Parasite lysis was achieved by nitrogen cavitation using a prechilled 45-mL Parr cell disruption vessel (1,500 lb/in^2, 60 min, 4°C). To clarify the lysate, it was centrifuged (10,000 × g, 15 min, 4°C), and the supernatant was collected, transferred into fresh tubes, and centrifuged (30,000 × g, 15 min, 4°C). As a quality assurance step for each lysate, the RNA content of the resulting supernatant was determined using a NanoDrop spectrophotometer (Shimadzu). Supernatants with RNA levels of >250 ng/μL were aliquoted (100 μL), flash frozen in liquid nitrogen, and stored at −80°C.

[2] = tested on: human translation (HEK 293F lysate); assay: Human in vitro translation (HsIVT) assay, HEK 293F lysate, luciferase reporter; assay type: biochemical; conditions: for effect on translation in the HsIVT assay (Fig. S3A): 10 µM, three technical replicates
Excerpt: as §1, §2
FreeStyle human embryonic kidney (HEK) 293F cells (Thermo Fisher Scientific) were grown in 500-mL polycarbonate Erlenmeyer vented flasks (Corning) containing FreeStyle 293 expression medium (Life Technologies) upon reaching a density of approximately 2 × 10^6. Cells were then centrifuged at 1,000 × g for 10 min at 4°C, the medium was discarded, and the resulting pellet was washed once in buffer II containing 20 U of human placental RNase inhibitor (Sigma-Aldrich) and cOmplete EDTA-free inhibitor cocktail (Roche) before being centrifuged at 2,800 × g for 10 min. Clarified HEK cell lysate was obtained in the same way as described for P. falciparum lysate.
PfIVT and HsIVT reactions (5 μL final volume) were performed in 384-well plates (Corning) containing 50% lysate from cells (either P. falciparum or HEK 293F), 10% amino acid solution (final concentration of 400 μM for each amino acid in 60 mM KOH; biotechrabbit), 10% energy recovery solution (final assay concentrations of 40 mM HEPES [pH 7.4], 1.5 mM ATP, 0.15 mM GTP, […] creatine phosphate, and 40 U/mL creatine phosphokinase), 10% helper solution (final assay concentrations of 200 μM cystine, 2% polyethylene glycol 3000 [PEG 3000], 1 mM spermidine, 0.5 mM folinic acid, and 15 μM leupeptin), 10% supplemental salt solution (22.5 mM HEPES [pH 7.4], 50 mM potassium acetate, 1 mM magnesium acetate, 1 mM DTT, 1 U/mL human placental RNase inhibitor, 0.1 mM leupeptin), and 10% cbg99 luciferase mRNA (3,000 ng/mL). A master mix solution containing all components was prepared on ice prior to assays, and 5 μL was dispensed into wells using an automated Integra VIAFLO 16-channel 12.5-μL pipette.

[3] = tested on: asexual-blood-stage (ABS) P. falciparum; assay: SYBR green-based P. falciparum asexual growth inhibition assay; assay type: cell-based; conditions: Plasmodium falciparum
Procedure: The Plasmodium falciparum reference strain 3D7 used throughout this study was cultured as previously described ([39]). Briefly, cultures incubated at 37°C in a humidified atmosphere of 1% O2 and 3% CO2 in balance with N2 were maintained in RPMI 1640 media supplemented with 5% A^+ human red blood cells (provided by the Scottish National Blood Transfusion Service), 25 mM HEPES, 2 mM L-glutamine, 0.5% AlbuMAX II (Gibco), 12 mM sodium bicarbonate, 0.2 mM hypoxanthine, and 20 mg/L gentamicin (pH 7.3).
Our SYBR green asexual-growth assay was based on a previous report ([45]). In brief, 96-well black clear-bottom plates (Corning) were preprinted with a compound and normalized with DMSO to 0.5% of a total assay volume of 100 μL. Highly synchronized ring-stage parasites and blood were added to a 2% final parasitemia and 1% hematocrit. The compounds were incubated with parasites for 72 h prior to freezing at −20°C (to aid cell lysis). The plate was thawed on ice and lysis buffer (20 mM Tris pH 7.5, 5 mM EDTA, 0.008% [w/v] saponin, […]) containing SYBR green I (Thermo Fisher Scientific) at a final concentration of 0.02% (v/v) was added. The 96-well plate was equilibrated to room temperature for 1 h before fluorescence was determined on a TECAN Infinite Pro 200 microplate reader using green fluorescent protein (GFP) filters (excitation, 485 nm; emission, 535 nm). Data were fitted to a two-parameter equation using GraFit version 7.0 (Erithacus Software), and EC50 values were calculated. An excess of the standard inhibitor mefloquine (10 μM) was used to define 0% parasite growth.

[4] = biological target: CBG99 luciferase (Pyrophorus plagiophthalamus, UniProt Q7M4K1); assay: Luciferase counterscreen (false-positive counterscreen); assay type: biochemical, click beetle; conditions: read-out: IC50 value (μM) Counterscreen, weighted mean ± SD of two technical replicates
Chain of CBG99 luciferase (Q7M4K1 entry or part of it): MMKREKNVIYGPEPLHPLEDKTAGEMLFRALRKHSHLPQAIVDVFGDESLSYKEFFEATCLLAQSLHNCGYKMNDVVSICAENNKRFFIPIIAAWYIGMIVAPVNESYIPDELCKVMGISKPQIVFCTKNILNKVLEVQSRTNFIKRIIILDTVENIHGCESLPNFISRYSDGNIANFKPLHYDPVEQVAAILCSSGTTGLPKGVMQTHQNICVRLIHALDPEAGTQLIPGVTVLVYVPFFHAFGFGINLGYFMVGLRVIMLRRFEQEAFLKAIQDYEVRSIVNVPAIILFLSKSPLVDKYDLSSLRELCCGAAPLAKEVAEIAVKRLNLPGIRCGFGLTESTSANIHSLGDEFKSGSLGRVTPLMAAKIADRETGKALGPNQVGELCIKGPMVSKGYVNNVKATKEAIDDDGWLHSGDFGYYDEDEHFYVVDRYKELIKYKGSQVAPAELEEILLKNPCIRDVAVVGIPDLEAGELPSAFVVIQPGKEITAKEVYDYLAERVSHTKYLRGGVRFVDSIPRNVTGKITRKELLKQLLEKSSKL
Procedure: Hits identified in our primary assay screen were assessed for their potential to interfere with the cbg99 luciferase reporter. For this counterscreen, the master mix containing all the components required for translation (as described above) was incubated for 210 min at 32°C, resulting in the in vitro translation of cbg99 luciferase. The produced luciferase was then incubated with test compounds for 5 min prior to the addition of luciferase reaction buffer. […] Hits from the primary screen were assessed as luciferase inhibitors in 8-point dose-dependent assays ranging from 30 μM to 13.7 nM (1:3 dilutions). Levels of luciferase inhibition were determined relative to the positive control.

[5] = tested on: asexual-blood-stage P. falciparum; conditions: cited from earlier work
[6] = established inhibitors of protein translation, read-out: IC50 values, µM PfIVT (Table S1)
[7] = established inhibitors of protein translation, read-out: EC50 values, µM PfABS (Table S1)
[8] = Pathogen Box hits, 8-point, weighted mean ± SD of two technical replicates, read-out: IC50 value (μM) PfIVT
[9] = Pathogen Box hits, weighted mean ± SD of two technical replicates, read-out: IC50 value (μM) HsIVT
[10] = P. falciparum 3D7 cell line, read-out: P. falciparum asexual-blood-stage EC50
[11] = P. falciparum Dd2 cell line, read-out: P. falciparum asexual-blood-stage EC50

Row | Structure (SMILES) | IC50 [1, 6] [µM] | EC50 [3, 7] [µM] | IC50 [1, 8] [µM] | IC50 ([1]; Table 3, read-out: PfIVT IC50) [µM] | PfIVT inhibition at 30 μM (%) ([1]; Pathogen Box) | IC50 [2, 9] [µM] | IC50 ([4]; Pathogen Box hits) | EC50 [5, 10] [µM] | also measured
1 | O=C(NCCN1CCCC1)c1cc(-c2ccc(CN3CCOCC3)cc2)nc2ccc(F)cc12 [DDD107498/M5717, reference compound] | 0.1 | 0.0008 | – | – | – | – | – | – | effect on translation in the HsIVT assay (Fig. S3A) [2]: little or no effect
2 | O=C(Nc1ccc(C(F)(F)F)c(C(F)(F)F)c1)c1cc(Cl)ccc1O [MMV687807] | – | – | 0.09 ± 0.007 | 0.09 ± 0.007 | 95.1 | 0.5 ± 0.006 | 25 ± 0.8 µM | 1.8 | selectivity index/window, PfIVT compared to HsIVT [1]: ≤ 5 fold
3 | O=C(Nc1c(O)cccc1-c1nc2c(C(=O)O)cccc2o1)c1cc(-c2ccccc2)on1 [MMV676008] | – | – | 0.4 ± 0.08 | 0.4 ± 0.08 | 74.9 | 12 ± 0.4 | 21 ± 0.6 µM | > 20 | selectivity index/window, PfIVT compared to HsIVT [1]: ≥ 30 fold; IC50 ([1]; read-out: PfIVT IC50 (text)): 0.04 µM; EC50 ([5]; Table 3 footnote: 3D7, read-out: EC50 against P. falciparum (text)): > 25 µM
4 | C[C@H]1CCC[C@H](C[C@H]2Cc3cc(O)cc(O)c3C(=O)O2)O1 [Cladosporin, cladosporin, reference compound] | 13 | 0.07 | – | – | – | – | – | – | effect on translation in the HsIVT assay (Fig. S3A) [2]: little or no effect; activity in HsIVT assay at 100 μM ([2]; 100 μM): inactive
5 | O=C(NCCN1CCCC1)c1cc(-c2ccc(CN3CCOCC3)cc2Cl)nc2ccc(F)cc12 [DDD00197451, reference compound] | 0.5 | 0.003 | – | – | – | – | – | – | inhibition of translation (PfIVT), internal control ([1]; internal control in all plates of the single-point screens): > 97%
6 | NCCCC[C@H](N)C(=O)NS(=O)(=O)OC[C@H]1O[C@@H](n2cnc3c(N)ncnc32)[C@H](O)[C@@H]1O [DDD01712277, reference compound] | 0.2 | 0.1 | – | – | – | – | – | – | –
7 | O=C(NCCN1CCCC1)c1cc(NCCCCN2CCC(F)(F)CC2)nc2ccc(Cl)cc12 [MMV667494] | – | – | 0.3 ± 0.09 | 0.3 ± 0.09 | 97.7 | > 30 | > 30 µM | 0.01 | selectivity index/window, PfIVT compared to HsIVT [1]: ≥ 30 fold
8 | C[C@@H]1C[C@H](C)C[C@H](C)[C@@H](O)CC(=O)O[C@H]([C@@H]2CCC[C@H]2C(=O)O)C/C=C/C=C(/C#N)[C@H](O)[C@@H](C)C1 [Borrelidin, borrelidin, reference compound] | 1.2 | – | – | – | – | – | – | – | EC50 ([5]; ref 50 (supplement numbering), read-out: EC50 values, µM PfABS (Table S1)): 0.002 µM
9 | O=C(NCCN1CCCC1)c1cc(NCCN2CCOCC2)nc2ccc(Cl)cc12 [MMV634140] | – | – | 2.9 ± 0.09 | 3 ± 0.09 | 88.4 | > 30 | > 30 µM | 0.09 | EC50 ([5]; asexual-blood-stage P. falciparum, Table 3 footnote: 3D7, read-out: ABS EC50 (text)): 0.041 µM
10 | Cc1ccc(NC(=O)c2cc(Cl)ccc2O)cc1 [MMV1578897] | – | – | – | – | – | – | – | – | PfIVT inhibition at 30 μM (%) ([1]; Pandemic Box): 93.4%; EC50 [5, 11]: 5 µM
11 | O=C(Nc1ccc(F)c(-c2nc3cc(-c4ccccc4)cnc3[nH]2)c1)N1CCCC1 [MMV688372] | – | – | – | – | 62.9 | – | – | – | EC50 ([3]; 3D7, 72 h, read-out: P. falciparum asexual-blood-stage EC50): 13.6 µM; EC50 ([3]; read-out: EC50 against P. falciparum (text)): 14 µM
12 | Cc1ccc2c(c1C)NC(=O)C21NN=C(c2ccccc2)S1 (stereo not drawn) [MMV019189] | – | – | 0.03 ± 0.009 | 0.03 ± 0.009 | 84.4 | 7.7 ± 0.3 | 7 µM and > 30 µM | 0.75 | selectivity index/window, PfIVT compared to HsIVT [1]: ≥ 30 fold
13 | Nc1nc(NC2Cc3ccc(F)cc3C2)nc(N2CCCCC2)n1 (stereo not drawn) [MMV1580839] | – | – | – | 0.8 ± 0.08 | – | – | – | – | PfIVT IC50 (μM) [1]: submicromolar potency; IC50 ([1]; Pandemic Box hits, 8-point, weighted mean ± SD of two technical replicates, read-out: IC50 value (μM) PfIVT): 0.8 ± 0.08 µM; PfIVT inhibition at 30 μM (%) ([1]; Pandemic Box): 73.3%; IC50 ([2]; Pandemic Box hits, weighted mean ± SD of two technical replicates, read-out: IC50 value (μM) HsIVT): 7.6 ± 0.12 µM; IC50 ([2]; read-out: HsIVT IC50 (text)): 8 µM; IC50 ([4]; Pandemic Box hits): 8.3 ± 0.08 µM; EC50 [5, 11]: 5 µM
14 | CC[C@H]1CN2CCc3cc(OC)c(OC)cc3[C@@H]2C[C@@H]1C[C@H]1NCCc2cc(OC)c(OC)cc21 [Emetine, emetine, reference compound] | 1.8 | 0.03 | – | – | – | – | – | – | inhibition of translation in HsIVT assay (validation) [2]: successfully inhibit translation; effect on translation in the HsIVT assay (Fig. S3A) [2]: ablated activity; IC50 ([2]; weighted mean ± SD from at least two biological replicates, read-out: IC50 in the HsIVT assay (Fig. S3B)): 0.8 ± 0.1 µM
